From ChEMBL document CHEMBL2375319, “Design, synthesis and structure-activity relationships of 3,5-diaryl-1H-pyrazoles as inhibitors of arylamine N-acetyltransferase” (Bioorg Med Chem Lett, 2013)
Converted amounts (≈) assume the structure as drawn.

Test system: Mycobacterium tuberculosis
Assay: Antimycobacterial activity against Mycobacterium bovis BCG after 28 days
Format: functional
Details: variant bovis BCG, 672 h

COc1ccc(-c2cc(-c3cc(OC)ccc3O)[nH]n2)cc1
MIC: 34 µM (≈ 10.1 µg/mL)
